Counter-ions that a name gives are not always drawn.
Columns and labels:
FLT3 = biological target: T1, FLT3 (Homo sapiens, UniProt P36888); assay: TR-FRET kinase activity assay, FLT3; assay type: biochemical; conditions: ATP at Km, 60 minutes
T1 sequence (P36888 27-993): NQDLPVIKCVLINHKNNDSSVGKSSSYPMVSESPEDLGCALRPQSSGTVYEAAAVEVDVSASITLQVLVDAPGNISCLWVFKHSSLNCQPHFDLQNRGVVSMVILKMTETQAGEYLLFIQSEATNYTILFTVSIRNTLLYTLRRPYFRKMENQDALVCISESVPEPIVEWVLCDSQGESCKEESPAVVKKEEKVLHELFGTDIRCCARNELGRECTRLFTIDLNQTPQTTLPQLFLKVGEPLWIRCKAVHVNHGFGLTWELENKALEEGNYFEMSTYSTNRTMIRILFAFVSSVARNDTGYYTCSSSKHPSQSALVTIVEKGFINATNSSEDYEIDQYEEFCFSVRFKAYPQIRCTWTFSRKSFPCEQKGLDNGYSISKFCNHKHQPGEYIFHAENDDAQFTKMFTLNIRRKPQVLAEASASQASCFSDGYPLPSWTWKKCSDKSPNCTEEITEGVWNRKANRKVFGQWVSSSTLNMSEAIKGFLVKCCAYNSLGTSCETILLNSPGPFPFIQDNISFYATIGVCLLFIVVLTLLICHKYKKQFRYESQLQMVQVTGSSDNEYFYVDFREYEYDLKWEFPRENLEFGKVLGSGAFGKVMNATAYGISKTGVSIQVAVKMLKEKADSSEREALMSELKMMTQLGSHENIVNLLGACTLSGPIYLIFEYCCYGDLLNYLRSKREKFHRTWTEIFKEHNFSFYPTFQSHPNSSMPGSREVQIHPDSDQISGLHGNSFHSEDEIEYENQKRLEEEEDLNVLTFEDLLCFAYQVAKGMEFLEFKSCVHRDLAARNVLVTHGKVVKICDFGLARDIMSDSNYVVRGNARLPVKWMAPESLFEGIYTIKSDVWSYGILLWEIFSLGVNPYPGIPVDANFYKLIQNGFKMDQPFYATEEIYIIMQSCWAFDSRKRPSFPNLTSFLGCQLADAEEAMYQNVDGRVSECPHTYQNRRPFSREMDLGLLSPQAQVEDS
Method: (§1) IC50 values for compound inhibition of AXL, FLT3, MERTK and TYRO3 activity were determined using a TR-FRET activity assay. A peptide substrate with a fluorescent label is phosphorylated on a tyrosine by each enzyme, where the now phosphorylated product is bound by a Europium-labeled antibody specific to that phosphorylation site. The proximity between the antibody and the substrate gives a signal known as TR-FRET. As the enzyme is inhibited by compound, less phosphorylated peptide product is made, causing a decrease in overall signal.
(§2) Activity assays were performed in a 384-well, small volume, black microplates in an active enzyme volume of 10 uL and final developed volume of 20 uL. Final assay conditions are 50 mM HEPES pH 7.5, 10 mM MgCl2, 1 mM EGTA, 0.01% Brij 35 and 1 mM DTT, all at RT. Enzyme, substrate-labeled peptide and compound are mixed, and then the reaction is initiated with the addition of ATP at Km concentration for each enzyme. The reaction is allowed to run 60 minutes and then quenched with a 12.5 mM EDTA (ethylenediamine tetraacetic acid) solution. The plate is then developed with the addition of Europium-labeled antibody for a final volume of 20 uL and is then incubated for 30 minutes in darkness. Plates are read in a PHERASTAR® plate reader. Data are analyzed in GraphPad PRISM.

TYRO3 = biological target: T2, TYRO3 (Homo sapiens, UniProt Q06418); assay: TR-FRET kinase activity assay, TYRO3; assay type: biochemical; conditions: ATP at Km, 60 minutes
T2 sequence (Q06418 41-890): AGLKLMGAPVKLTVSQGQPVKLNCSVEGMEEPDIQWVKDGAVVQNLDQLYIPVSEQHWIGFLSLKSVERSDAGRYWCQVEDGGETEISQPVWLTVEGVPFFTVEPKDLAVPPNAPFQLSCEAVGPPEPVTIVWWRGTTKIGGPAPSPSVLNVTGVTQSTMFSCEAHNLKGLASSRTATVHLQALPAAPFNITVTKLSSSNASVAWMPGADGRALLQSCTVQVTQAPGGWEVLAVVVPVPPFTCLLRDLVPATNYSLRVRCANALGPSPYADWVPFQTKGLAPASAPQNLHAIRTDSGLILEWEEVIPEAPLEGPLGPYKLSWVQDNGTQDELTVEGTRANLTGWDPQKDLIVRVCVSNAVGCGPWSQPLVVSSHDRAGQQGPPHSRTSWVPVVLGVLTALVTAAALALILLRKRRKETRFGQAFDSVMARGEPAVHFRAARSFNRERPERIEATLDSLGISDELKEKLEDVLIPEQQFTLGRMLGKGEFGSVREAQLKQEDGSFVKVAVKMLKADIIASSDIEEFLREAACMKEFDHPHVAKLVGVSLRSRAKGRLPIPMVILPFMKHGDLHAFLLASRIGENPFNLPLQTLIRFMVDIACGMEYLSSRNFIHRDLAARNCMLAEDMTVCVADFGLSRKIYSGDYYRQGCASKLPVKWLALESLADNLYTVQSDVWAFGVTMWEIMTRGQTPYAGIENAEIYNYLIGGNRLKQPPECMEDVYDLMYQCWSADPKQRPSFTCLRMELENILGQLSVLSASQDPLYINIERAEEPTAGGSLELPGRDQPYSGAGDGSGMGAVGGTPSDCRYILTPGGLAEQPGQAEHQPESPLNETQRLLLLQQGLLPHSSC
Method: as §1, §2

SMILES	IC50 (FLT3) [µM]	IC50 (TYRO3) [µM]
CCCCNc1cc2c(cn1)c(OC1CCNCC1)ncc2[C@H]1CC[C@H](O)CC1 [Compound 107]	≤ 0.1	≤ 0.1
CCCCC[C@H](C)Nc1ncc2c(=O)n(C3CCOCC3)cc([C@H]3CC[C@H](O)CC3)c2n1 [Compound 108]	1 to 10	≤ 0.1
CCCCNc1cc2c(cn1)c(=O)n(C1CCNCC1)cc2[C@H]1CC[C@H](O)CC1 [Compound 109, 6-(butylamino)-4-((1r,4r)-4-hydroxycyclohexyl)-2-(piperidin-4-yl)-2,7-naphthyridin-1(2H)-one hydrochloride]	0.1 to 1	≤ 0.1
CC[C@@H](C)Nc1ncc2c(OC3CCN(C)CC3)ncc([C@H]3CC[C@H](O)CC3)c2n1 [Compound 195]	1 to 10	> 10
CCC[C@@H](C)Nc1ncc2c(OC3CCNCC3)ncc([C@H]3CC[C@H](O)CC3)c2n1 [Compound 196]	1 to 10	≤ 0.1
Cc1cccc(Nc2ncc3c(OC4CCNCC4)ncc([C@H]4CC[C@H](O)CC4)c3n2)c1 [Compound 197]	0.1 to 1	≤ 0.1
Cc1cc(Cl)ccc1Nc1ncc2c(OC3CCNCC3)ncc([C@H]3CC[C@H](O)CC3)c2n1 [Compound 198]	0.1 to 1	≤ 0.1
CCCC(C)Nc1ncc2c(=O)n([C@H]3CCN(C)C[C@@H]3F)cc([C@H]3CC[C@H](O)CC3)c2n1 (stereo partly drawn) [Compound 199]	1 to 10	≤ 0.1
CCCC(C)Nc1ncc2c(=O)n([C@@H]3CCCN(C)C3)cc([C@H]3CC[C@H](O)CC3)c2n1 (stereo partly drawn) [Compound 200]	1 to 10	≤ 0.1
CCCC(C)Nc1ncc2c(=O)n(C3CCN(C4COC4)CC3)cc([C@H]3CC[C@H](O)CC3)c2n1 (stereo partly drawn) [Compound 201]	1 to 10	≤ 0.1
CC(Nc1ncc2c(OC3CCNCC3)ncc([C@H]3CC[C@H](O)CC3)c2n1)c1ccncc1 (stereo partly drawn) [Compound 202]	1 to 10	≤ 0.1
CCCC(C)Nc1ncc2c(OC3CCNCC3)ncc([C@H]3CC[C@H](O)CC3)c2n1 (stereo partly drawn) [Compound 203]	≤ 0.1	≤ 0.1
CCC[C@@H](C)Nc1ncc2c(OC3CCNCC3)ncc([C@H]3CC[C@@H](O)CC3)c2n1 [Compound 204]	0.1 to 1	0.1 to 1
O[C@H]1CC[C@H](c2cnc(OC3CCNCC3)c3cnc(Nc4cccc(Cl)c4)nc32)CC1 [Compound 205]	≤ 0.1	≤ 0.1
O[C@H]1CC[C@H](c2cnc(OC3CCNCC3)c3cnc(Nc4ccc(Cl)cc4)nc32)CC1 [Compound 206]	≤ 0.1	≤ 0.1
CCc1cccc(Nc2ncc3c(OC4CCNCC4)ncc([C@H]4CC[C@H](O)CC4)c3n2)c1 [Compound 207]	0.1 to 1	0.1 to 1
CCC[C@@H](C)Nc1ncc2c(OC3CCN(C)CC3)ncc([C@H]3CC[C@H](O)CC3)c2n1 [Compound 208]	0.1 to 1	0.1 to 1
Cc1ccc(Cl)cc1Nc1ncc2c(OC3CCNCC3)ncc([C@H]3CC[C@H](O)CC3)c2n1 [Compound 209]	0.1 to 1	≤ 0.1
O[C@H]1CC[C@H](c2cnc(OC3CCNCC3)c3cnc(Nc4ccccc4)nc32)CC1 [Compound 210]	≤ 0.1	≤ 0.1
O[C@H]1CC[C@H](c2cnc(OC3CCNCC3)c3cnc(NC4CCOCC4)nc32)CC1 [Compound 211]	0.1 to 1	0.1 to 1

SMILES	IC50 (FLT3) [µM]	IC50 (TYRO3) [µM]
CC(C)CNc1ncc2c(OC3CCNCC3)ncc([C@H]3CC[C@H](O)CC3)c2n1 [Compound 212]	0.1 to 1	≤ 0.1
O[C@H]1CC[C@H](c2cnc(OC3CCNCC3)c3cnc(N[C@@H]4CCOC4)nc32)CC1 [Compound 213]	1 to 10	0.1 to 1
CCCC(C)Nc1ncc2c(O[C@@H]3CCCN(C)C3)ncc([C@H]3CC[C@H](O)CC3)c2n1 (stereo partly drawn) [Compound 214]	1 to 10	≤ 0.1
CCOc1ncc(C2CCN(C)CC2)c2nc(N[C@@H](C)CC)ncc12 [Compound 215]	1 to 10	≤ 0.1
O[C@H]1CC[C@H](c2cnc(OC3CCNCC3)c3cnc(N[C@H]4CCCOC4)nc32)CC1 [Compound 216]	1 to 10	0.1 to 1
CC[C@H](C)Nc1ncc2c(NC3CCOCC3)ncc([C@H]3CC[C@H](O)CC3)c2n1 [Compound 217]	1 to 10	≤ 0.1
C[C@@H](Nc1ncc2c(OC3CCNCC3)ncc([C@H]3CC[C@H](O)CC3)c2n1)c1ccccc1 [Compound 218]	1 to 10	0.1 to 1
CC[C@H](C)Nc1ncc2c(NC3CCN(C)CC3)ncc([C@H]3CC[C@H](O)CC3)c2n1 [Compound 220]	0.1 to 1	0.1 to 1
CC[C@H](C)Nc1ncc2c(OC3CCN(C)CC3)ncc([C@H]3CC[C@H](O)CC3)c2n1 [Compound 221]	1 to 10	0.1 to 1
CC[C@H](C)Nc1ncc2c(N3CC[C@@H](N(C)C)C3)ncc([C@H]3CC[C@H](O)CC3)c2n1 [Compound 222]	1 to 10	≤ 0.1
CC[C@H](C)Nc1ncc2c(OC3C[C@H]4CC[C@@H](C3)O4)ncc([C@H]3CC[C@H](O)CC3)c2n1 (stereo partly drawn) [Compound 223]	0.1 to 1	0.1 to 1
O[C@H]1CC[C@H](c2cnc(OC3CCNCC3)c3cnc(NCCC(F)(F)F)nc32)CC1 [Compound 224]	≤ 0.1	0.1 to 1
CC[C@H](C)Nc1ncc2c(=O)n(C3CCOCC3)cc([C@H]3CC[C@H](O)CC3)c2n1 [Compound 225]	1 to 10	≤ 0.1
CC[C@H](C)Nc1ncc2c(OC3CCOCC3)ncc([C@H]3CC[C@H](O)CC3)c2n1 [Compound 226]	0.1 to 1	0.1 to 1
CC[C@H](C)Nc1ncc2c(OC3CC(C)(C)N(C)C(C)(C)C3)ncc([C@H]3CC[C@H](O)CC3)c2n1 [Compound 227]	0.1 to 1	≤ 0.1
CCC(CC)Nc1ncc2c(OC3CCNCC3)ncc([C@H]3CC[C@H](O)CC3)c2n1 [Compound 228]	1 to 10	0.1 to 1
CC[C@H](C)Nc1ncc2c(O[C@H]3CC[C@H](O)CC3)ncc([C@H]3CC[C@H](O)CC3)c2n1 [Compound 229]	0.1 to 1	0.1 to 1
CC[C@H](C)Nc1ncc2c(Cl)ncc([C@H]3CC[C@H](O)CC3)c2n1 [Compound 230]	1 to 10	0.1 to 1
CC[C@H](C)NC1=NC2C([C@H]3CC[C@H](O)CC3)=CN(C(C)C)C(=O)C2C=N1 (stereo partly drawn) [Compound 231]	1 to 10	≤ 0.1

From patent US20200291018A1, “TAM KINASE INHIBITORS” (SYROS PHARMACEUTICALS, INC., priority 2017, published 2020)
